Laboratory results taken from patent USRE40793E1, “Bicyclic benzamides of 3-or 4-substituted 4-(aminomethyl)-piperidine derivatives” (Janssen Pharmaceutica, N.V., priority 1997, dated 2009).

System: conscious dogs
Experiment: Gastric emptying of an acaloric liquid test meal delayed by administration of lidamidine, in conscious dogs
Format: in vivo, beagle dogs
Details: compounds, conscious dog, Δt = t 70% compound minus t 70% solvent, relative to t 70% solvent; for change in vivo at 0.0025 mg/kg / change in vivo at 0.01 mg/kg: Canis lupus familiaris; for change in vivo at 0.0025 mg/kg: read-out: ΔT/T^b (acceleration of gastric emptying of a liquid meal delayed by lidamidine); for change in vivo at 0.01 mg/kg: read-out: ΔT/T^a (acceleration of gastric emptying of a liquid meal delayed by lidamidine); for change in vivo at 0.0025 mg/kg / ΔT/T^b (acceleration of gastric emptying of a liquid meal delayed by lidamidine): dose 0.0025 mg/kg; for change in vivo at 0.01 mg/kg / ΔT/T^a (acceleration of gastric emptying of a liquid meal delayed by lidamidine): dose 0.01 mg/kg
Excerpt: C. Pharmacological Examples C.1. Gastric Emptying of an Acaloric Liquid Test Meal Delayed by Administration of Lidamidine, in Conscious Dogs
Female beagle dogs, weighing 7-14 kg, were trained to stand quietly in Pavlov frames. They were implanted with a gastric cannula under general anesthesia and aseptic precautions. After a medium laparatomy, an incision was made through the gastric wall in the longitudinal direction between the greater and the lesser curve, 2 cm above the nerves of Latarjet. The cannula was secured to the gastric wall by means of a double purse string suture and brought out via a stab wound at the left quadrant of the hypochondrium. Dogs were allowed a recovery period of at least two weeks. Experiments were started after a fasting period of 24 hours, during which water was available ad libitum. At the beginning of the experiment, the cannula was opened in order to remove any gastric juice or food remnants.
The stomach was cleansed with 40 to 50 ml lukewarm water. The test compound was administered I.V. (in a volume ≦3 ml via the vena cephalica), S.C. (in a volume ≦3 ml) or P.O. (in a volume of 1 ml/kg body weight, applied intragastrically via the cannula with a device that filled the lumen of the cannula: after injection of the test compound; 5 ml NaCl 0.9% was injected in order to correct for the dead space in the injection system). Immediately after administration of the test compound or its solvent, lidamidine (0.63 mg/kg was administered subcutaneously. 30 min later, the cannula was opened to determine the amount of fluid present in the stomach, promptly followed by reintroduction of the fluid. Then the test meal was administered via the cannula. This test meal consisted of 250 ml distilled water containing glucose (5 g/l) as a marker. The cannula remained closed for 30 min, whereafter the gastric contents were drained from the stomach to measure total volume (t=30 min). For later analysis 1 ml of the gastric contents was taken, promptly followed by reintroduction of the rest volume into the stomach. This sequence was repeated 4 times with 30 min intervals (t=60, 90, 120, 150 min).
In the 1 ml samples of the gastric contents, the glucose concentrations were measured on a Hitachi 717 automatic analyzer by the hexokinase method (Schmidt, 1961).
Curves were fitted to the measurement points (glucose versus time) using weighed non-linear regression analysis. Gastric emptying was quantified as the time needed to empty 70% of the meal (t 70%). The control emptying time was calculated as the mean t 70% of the last 5 solvent experiments of the same dog. Acceleration of delayed gastric emptying (Δt) was calculated as the time difference between t 70% compound and t 70% solvent. To correct for variations in emptying rate between dogs, Δt was expressed as % of t 70% solvent (Schuurkes et al. 1992)).

Molecule `CO[C@@H]1CN(CCCC(C)=O)CC[C@H]1CNC(=O)c1cc(Cl)c(N)c2c1OCC2` (relative stereo) [Compound 28, trans-4-amino-5-chloro-2,3-dihydro-N-[[3-methoxy-1-(4-oxopentyl)-4-piperidinyl]methyl]-7-benzofurancarboxamide] has a change in vivo at 0.0025 mg/kg of -42% and a change in vivo at 0.01 mg/kg of -56%.
For `COCCCN1CC[C@@H](CNC(=O)c2cc(Cl)c(N)c3c2OCC3)[C@H](OC)C1` (relative stereo) [Compound 30, trans-4-amino-5-chloro-2,3-dihydro-N-[[3-methoxy-1-(3-methoxypropyl)-4-piperidinyl]methyl]-7-benzofurancarboxamide], the change in vivo at 0.0025 mg/kg was -55% and the change in vivo at 0.01 mg/kg was -59%.
In the case of `COCCCN1CC[C@@H](CNC(=O)c2cc(Cl)c(N)c3c2OC(C)(C)C3)[C@H](O)C1` (relative stereo) [Compound 39, trans-(−)-4-amino-5-chloro-2,3-dihydro-N-[[3-hydroxy-1-(3-methoxypropyl)-4-piperidinyl]methyl]-2,2-dimethyl-7-benzofurancarboxamide], the “ΔT/T^b (acceleration of gastric emptying of a liquid meal delayed by lidamidine)” value was −0.43 and the “ΔT/T^a (acceleration of gastric emptying of a liquid meal delayed by lidamidine)” value was −0.53.
For `COCCCN1CC[C@@H](CNC(=O)c2cc(Cl)c(N)c3c2OC(C)(C)C3)[C@H](O)C1` (relative stereo) [Compound 40, trans-(+)-4-amino-5-chloro-2,3-dihydro-N-[[3-hydroxy-1-(3-methoxypropyl)-4-piperidinyl]methyl]-2,2-dimethyl-7-benzofurancarboxamide], the “ΔT/T^b (acceleration of gastric emptying of a liquid meal delayed by lidamidine)” value was −0.17 and the “ΔT/T^a (acceleration of gastric emptying of a liquid meal delayed by lidamidine)” value was −0.22.
With `CCCCN1CC[C@@H](CNC(=O)c2cc(Cl)c(N)c3c2OC(C)(C)C3)[C@H](OC)C1.O=C(O)C(=O)O` (relative stereo) [Compound 51] the “ΔT/T^a (acceleration of gastric emptying of a liquid meal delayed by lidamidine)” value was −0.45.
`CO[C@@H]1CN(CCCC(C)=O)CC[C@H]1CNC(=O)c1cc(Cl)c(N)c2c1OC(C)(C)C2.O=C(O)C(=O)O` (relative stereo) [Compound 52] was tested, and the “ΔT/T^a (acceleration of gastric emptying of a liquid meal delayed by lidamidine)” value was −0.18.
With `CCCCN1CC[C@@H](CNC(=O)c2cc(Cl)c(N)c3c2OCCO3)[C@@H](O)C1.Cl.O` (relative stereo) [Compound 54] the “ΔT/T^b (acceleration of gastric emptying of a liquid meal delayed by lidamidine)” value was 0.04 and the “ΔT/T^a (acceleration of gastric emptying of a liquid meal delayed by lidamidine)” value was −0.28.
`CCCCN1CC[C@@H](CNC(=O)c2cc(Cl)c(N)c3c2OCCO3)[C@H](O)C1` (relative stereo) [Compound 55, (trans)-8-amino-N-[(1-butyl-3-hydroxy-4-piperidinyl)methyl]-7-chloro-2,3-dihydro-1,4-benzodioxin-5-carboxamide] was tested, and the change in vivo at 0.0025 mg/kg was -18% and the change in vivo at 0.01 mg/kg was -29%.
With `COCCCN1CC[C@@H](CNC(=O)c2cc(Cl)c(N)c3c2OCCO3)[C@H](O)C1` (relative stereo) [Compound 57] the “ΔT/T^b (acceleration of gastric emptying of a liquid meal delayed by lidamidine)” value was −0.03 and the “ΔT/T^a (acceleration of gastric emptying of a liquid meal delayed by lidamidine)” value was −0.10.
With `CC(=O)CCCN1CC[C@@H](CNC(=O)c2cc(Cl)c(N)c3c2OCCO3)[C@@H](O)C1` (relative stereo) [Compound 58] the “ΔT/T^b (acceleration of gastric emptying of a liquid meal delayed by lidamidine)” value was −0.20 and the “ΔT/T^a (acceleration of gastric emptying of a liquid meal delayed by lidamidine)” value was 0.09.
With `CC(=O)CCCN1CC[C@@H](CNC(=O)c2cc(Cl)c(N)c3c2OCCO3)[C@H](O)C1.O` (relative stereo) [Compound 59] the “ΔT/T^b (acceleration of gastric emptying of a liquid meal delayed by lidamidine)” value was −0.15 and the “ΔT/T^a (acceleration of gastric emptying of a liquid meal delayed by lidamidine)” value was −0.13.
With `CCCCN1CC[C@@H](CNC(=O)c2cc(Cl)c(N)c3c2OCCCO3)[C@H](O)C1.Cl` (relative stereo) [Compound 65] the “ΔT/T^a (acceleration of gastric emptying of a liquid meal delayed by lidamidine)” value was −0.07.
With `Nc1c(Cl)cc(C(=O)NC[C@@H]2CCN(CCCO)C[C@H]2O)c2c1CCCO2.O.O` (relative stereo) [Compound 74] the “ΔT/T^a (acceleration of gastric emptying of a liquid meal delayed by lidamidine)” value was −0.51.
`Nc1c(Cl)cc(C(=O)NC[C@@H]2CCN(CCOCCO)C[C@H]2O)c2c1CCCO2.O=C(O)C(=O)O` (relative stereo) [Compound 75] was tested, and the “ΔT/T^b (acceleration of gastric emptying of a liquid meal delayed by lidamidine)” value was −0.39 and the “ΔT/T^a (acceleration of gastric emptying of a liquid meal delayed by lidamidine)” value was −0.01.
For `N#CCN1CC[C@@H](CNC(=O)c2cc(Cl)c(N)c3c2OCCC3)[C@H](O)C1` (relative stereo) [Compound 76], the “ΔT/T^a (acceleration of gastric emptying of a liquid meal delayed by lidamidine)” value was −0.18.
For `N#CCCCN1CC[C@@H](CNC(=O)c2cc(Cl)c(N)c3c2OCCC3)[C@H](O)C1` (relative stereo) [Compound 77], the “ΔT/T^a (acceleration of gastric emptying of a liquid meal delayed by lidamidine)” value was −0.18.
In the case of `CCCCN1CC[C@@H](CNC(=O)c2cc(Cl)c(N)c3c2OCCC3)[C@H](O)C1` (relative stereo) [Compound 78, trans-5-amino-N-[(1-butyl-3-hydroxy-4-piperidinyl)methyl]-6-chloro-3,4-dihydro-2H-1-benzopyran-8-carboxamide], the change in vivo at 0.0025 mg/kg was -33% and the change in vivo at 0.01 mg/kg was -50%.
`CC(=O)CCCN1CC[C@@H](CNC(=O)c2cc(Cl)c(N)c3c2OCCC3)[C@H](O)C1` (relative stereo) [Compound 80] was tested, and the “ΔT/T^b (acceleration of gastric emptying of a liquid meal delayed by lidamidine)” value was −0.11 and the “ΔT/T^a (acceleration of gastric emptying of a liquid meal delayed by lidamidine)” value was −0.51.
`COCCCN1CCC(O)(CNC(=O)c2cc(Cl)c(N)c3c2OC(C)(C)C3)CC1` [Compound 86] was tested, and the “ΔT/T^b (acceleration of gastric emptying of a liquid meal delayed by lidamidine)” value was −0.33 and the “ΔT/T^a (acceleration of gastric emptying of a liquid meal delayed by lidamidine)” value was −0.47.
`CC(=O)CCCN1CCC(O)(CNC(=O)c2cc(Cl)c(N)c3c2OC(C)(C)C3)CC1` [Compound 93] was tested, and the “ΔT/T^a (acceleration of gastric emptying of a liquid meal delayed by lidamidine)” value was −0.03.
“(cis)-4-amino-5-chloro-2,3-dihydro-N-[[3-hydroxy-1-[3-(2-methyl-1,3-dioxolan-2-yl)propyl-]4-piperidinyl]methyl]-7-benzofurancarboxamide [Compound 7]” was tested, and the “ΔT/T^b (acceleration of gastric emptying of a liquid meal delayed by lidamidine)” value was −0.07 and the “ΔT/T^a (acceleration of gastric emptying of a liquid meal delayed by lidamidine)” value was 0.11.
